Reference: patent US20050222146A1, “N-substituted-n-sulfonylaminocyclopropane compounds and pharmaceutical use thereof” (priority 2003, published 2005)

How the values were obtained:
Assay type in all cases: biochemical
MMP-1 = molecular target: T1, MMP-1 (Homo sapiens, UniProt P03956); test: MMP-1 inhibitory action, Type I collagen Activity Measurement kit (FITC-labeled collagen type I); settings: 37° C. for 3 hr, read-out: Experimental Example 2 IC50 MMP1
T1 sequence (P03956 100-469): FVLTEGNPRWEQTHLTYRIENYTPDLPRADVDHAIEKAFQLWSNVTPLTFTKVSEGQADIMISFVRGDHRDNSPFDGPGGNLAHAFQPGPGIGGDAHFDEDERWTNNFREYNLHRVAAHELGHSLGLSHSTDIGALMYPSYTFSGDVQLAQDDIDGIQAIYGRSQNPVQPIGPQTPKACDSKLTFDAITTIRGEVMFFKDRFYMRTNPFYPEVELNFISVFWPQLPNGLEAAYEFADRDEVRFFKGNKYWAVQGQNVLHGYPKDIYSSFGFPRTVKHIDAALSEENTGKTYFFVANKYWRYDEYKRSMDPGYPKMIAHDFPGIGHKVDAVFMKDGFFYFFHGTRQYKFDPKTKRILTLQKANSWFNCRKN

aggrecanase-1 = molecular target: T2, aggrecanase-1 (Homo sapiens, UniProt O75173); test: Aggrecanase-1 inhibitory action, Particle Assay (GAG release from aggrecan-containing polyacrylamide particles); settings: 37° C. for 15 hr, read-out: Experimental Example 1 IC50 AG1
T2 sequence (O75173 213-837): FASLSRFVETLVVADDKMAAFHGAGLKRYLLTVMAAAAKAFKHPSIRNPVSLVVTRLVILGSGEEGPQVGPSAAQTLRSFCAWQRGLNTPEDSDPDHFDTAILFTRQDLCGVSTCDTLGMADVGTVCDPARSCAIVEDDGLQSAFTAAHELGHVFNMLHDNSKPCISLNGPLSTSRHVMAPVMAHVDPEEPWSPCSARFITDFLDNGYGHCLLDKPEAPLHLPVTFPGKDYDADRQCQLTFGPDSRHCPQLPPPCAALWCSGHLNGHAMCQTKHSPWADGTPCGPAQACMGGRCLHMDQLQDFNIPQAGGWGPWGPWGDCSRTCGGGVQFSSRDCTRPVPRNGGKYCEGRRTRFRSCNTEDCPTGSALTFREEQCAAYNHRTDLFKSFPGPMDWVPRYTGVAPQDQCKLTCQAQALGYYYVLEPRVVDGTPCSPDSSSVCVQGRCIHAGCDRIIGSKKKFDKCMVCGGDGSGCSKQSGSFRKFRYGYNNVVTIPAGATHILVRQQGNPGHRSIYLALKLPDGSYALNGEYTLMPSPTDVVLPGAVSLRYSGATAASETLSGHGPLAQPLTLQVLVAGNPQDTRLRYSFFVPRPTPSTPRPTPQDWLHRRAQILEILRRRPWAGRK
How it was run: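 Enzyme and test compound (DMSO dilutions) in Tris-HCl buffer incubated with aggrecan-containing polyacrylamide particles at 37 °C for 15 hr. Released GAG in supernatant quantified with 1,9-dimethylmethylene blue at 595 nm against whale chondroitin sulfate standard; % inhibition versus enzyme-free and inhibitor-free wells gives IC50 (μM).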

Recombinant Human MMP-13 = molecular target: T3, Recombinant Human MMP-13 (Homo sapiens, UniProt P45452); test: MMP-13 inhibition, MMP-13 specific fluorescent substrate with quencher; settings: synthetic substrate 7-MCA-Pro-CHA-Gly-NVal-His-Ala-DPA, 25° C. for 1 h; read-out: Experimental Example 3 IC50 MMP13
T3 construct: purchased R&D systems 511-MM
Procedure: Inhibitory activity of tested compounds on MMP-13 was measured using MMP-13 specific fluorescent substrate with quencher.
The enzyme and substrate were diluted with Tris-HCl buffer, and test compounds were diluted with dimethyl sulfoxide (DMSO).
Test compounds and the enzyme (Recombinant Human MMP-13: R&D systems, 511-MM) were added into 96-well plate. The reaction was initiated by adding synthetic substrate (7-MCA-Pro-CHA-Gly-NVal-His-Ala-DPA: enzyme systems products, Met-06) into the plate. After incubation at 25° C. for 1 h, the reaction was terminated by addition of reaction terminating solution containing acetic acid. Fluorescence intensity of each well was measured (Ex: 325 nm, Em: 405 nm) and the MMP-13 inhibitory activity of the compound in each well (%) was calculated based on the values of enzyme-free well and inhibitor-free well. The inhibitory activity of the compound was represented as IC50 (μM).

SMILES | IC50 (MMP-1) [nM] | IC50 (aggrecanase-1) [nM] | IC50 (Recombinant Human MMP-13) [nM]
O=C(O)[C@@]1(N(CCCO)S(=O)(=O)c2ccc(-c3ccc(Cl)cc3)s2)C[C@H]1c1ccccc1 [Example 2-18, (1R,2S)-1-[[5-(4-Chloro-phenyl)-thiophene-2-sulfonyl]-(3-hydroxy-propyl)-amino]-2-phenyl-cyclopropanecarboxylic acid] | ≥ 10000 | ≥ 1000 | < 1000
O=C(O)[C@@]12C[C@]1(c1ccccc1)CCCN2S(=O)(=O)c1ccc(-c2cc(C(F)(F)F)on2)s1 (relative stereo) [Example 2-22, (1R*,6S*)-6-Phenyl-2-[5-(5-trifluoromethyl-isoxazol-3-yl)-thiophene-2-sulfonyl]-2-aza-bicyclo[4.1.0]heptane-1-carboxylic acid] | ≥ 10000 | ≥ 1000 | ≥ 1000
O=C(O)[C@@]12C[C@]1(c1ccccc1)CCN2S(=O)(=O)c1ccc(-c2ccc(Cl)cc2)s1 (relative stereo) [Example 2-23, (1R*,5S*)-2-[5-(4-Chloro-phenyl)-thiophene-2-sulfonyl]-5-phenyl-2-aza-bicyclo[3.1.0]hexane-1-carboxylic acid] | ≥ 10000 | ≥ 1000 | ≥ 1000
CN1CCN(C(=O)CN([C@]2(C(=O)O)C[C@H]2c2ccccc2)S(=O)(=O)c2ccc(-c3ccc(Cl)cc3)s2)CC1 [Example 2-17, (1R,2S)-1-{[5-(4-Chloro-phenyl)-thiophene-2-sulfonyl]-[2-(4-methyl-piperazin-1-yl)-2-oxo-ethyl]-amino}-2-phenyl-cyclopropanecarboxylic acid] | ≥ 10000 | ≥ 1000 | ≥ 1000
Nc1nnnn1CCN([C@]1(C(=O)O)C[C@H]1c1ccccc1)S(=O)(=O)N1CCN(c2ccc(C(F)(F)F)cc2)CC1 (relative stereo) [Example 2-07, (1R*,2S*)-1-{[2-(5-Amino-tetrazol-1-yl)-ethyl]-[4-(4-trifluoromethyl-phenyl)-piperazine-1-sulfonyl]-amino}-2-phenyl-cyclopropanecarboxylic acid] | ≥ 10000 | ≥ 1000 | ≥ 10000
O=C(OCCCN([C@]1(C(=O)O)C[C@H]1c1ccccc1)S(=O)(=O)c1ccc(-c2ccc(Cl)cc2)s1)N1CCOCC1 [Example 2-20, Morpholine-4-carboxylic acid 3-{((1R,2S)-1-carboxy-2-phenyl-cyclopropyl)-[5-(4-chloro-phenyl)-thiophene-2-sulfonyl]-amino}-propyl ester] | ≥ 10000 | ≥ 1000 | ≥ 1000
O=C(O)[C@@]12C[C@]1(c1ccccc1)COC(CO)CN2S(=O)(=O)c1ccc(-c2ccc(Cl)cc2)s1 (relative stereo) [Example 2-26, (1R*,7R*)-2-[5-(4-Chloro-phenyl)-thiophene-2-sulfonyl]-4-hydroxymethyl-7-phenyl-5-oxa-2-aza-bicyclo[5.1.0]octane-1-carboxylic acid] | ≥ 10000 | ≥ 1000 | ≥ 1000
O=C(O)CN([C@]1(C(=O)O)C[C@H]1c1ccccc1)S(=O)(=O)c1ccc(-c2ccc(Cl)cc2)s1 [Example 2-08, (1R,2S)-1-{Carboxymethyl-[5-(4-chloro-phenyl)-thiophene-2-sulfonyl]-amino}-2-phenyl-cyclopropanecarboxylic acid] | ≥ 10000 | < 100 | ≥ 10000
CN1CCN(C(=O)CN([C@@]2(C(=O)O)C[C@@H]2c2ccccc2)S(=O)(=O)c2ccc(-c3ccc(Cl)cc3)s2)CC1 [Example 2-11, (1S,2R)-1-{[5-(4-Chloro-phenyl)-thiophene-2-sulfonyl]-[2-(4-methyl-piperazin-1-yl)-2-oxo-ethyl]-amino}-2-phenyl-cyclopropanecarboxylic acid] | ≥ 10000 | ≥ 1000 | ≥ 10000
O=C(O)[C@@]12C[C@@]1(c1ccccc1)COCN2S(=O)(=O)c1ccc(-c2ccc(Cl)cc2)s1 (relative stereo) [Example 2-01, (1R*,6S*)-2-[5-(4-chlorophenyl)-thiophene-2-sulfonyl]-6-phenyl-4-oxa-2-aza-bicyclo[4.1.0]heptane-1-carboxylic acid] | ≥ 10000 | ≥ 1000 | ≥ 1000

Results, then the compound that gave them:

IC50 (MMP-1) [nM] | IC50 (aggrecanase-1) [nM] | IC50 (Recombinant Human MMP-13) [nM] | SMILES
≥ 10000 | ≥ 1000 | ≥ 10000 | Nc1nnn(CCN([C@]2(C(=O)O)C[C@H]2c2ccccc2)S(=O)(=O)N2CCN(c3ccc(C(F)(F)F)cc3)CC2)n1 (relative stereo) [Example 2-06, (1R*,2S*)-1-{[2-(5-Amino-tetrazol-2-yl)-ethyl]-[4-(4-trifluoromethyl-phenyl)-piperazine-1-sulfonyl]-amino}-2-phenyl-cyclopropanecarboxylic acid]
≥ 10000 | ≥ 1000 | < 1000 | O=C(OCCN([C@]1(C(=O)O)C[C@H]1c1ccccc1)S(=O)(=O)c1ccc(-c2ccc(Cl)cc2)s1)N1CCOCC1 [Example 2-19, Morpholine-4-carboxylic acid 2-{((1R,2S)-1-carboxy-2-phenyl-cyclopropyl)-[5-(4-chloro-phenyl)-thiophene-2-sulfonyl]-amino}-ethyl ester]
≥ 10000 | ≥ 1000 | ≥ 1000 | CN1CCN(C(=O)OCCCN([C@]2(C(=O)O)C[C@H]2c2ccccc2)S(=O)(=O)c2ccc(-c3ccc(Cl)cc3)s2)CC1 [Example 2-21, 4-Methyl-piperazine-1-carboxylic acid 3-{((1R,2S)-1-carboxy-2-phenyl-cyclopropyl)-[5-(4-chloro-phenyl)-thiophene-2-sulfonyl]-amino}-propyl ester]
≥ 10000 | < 100 | ≥ 1000 | O=C(O)CN([C@]1(C(=O)O)C[C@H]1c1ccccc1)S(=O)(=O)c1ccc(-c2cc(C(F)(F)F)on2)s1 [Example 2-09, (1R,2S)-1-{Carboxymethyl-[5-(5-trifluoromethyl-isoxazol-3-yl)-thiophene-2-sulfonyl]-amino}-2-phenyl-cyclopropanecarboxylic acid]
≥ 10000 | ≥ 1000 | ≥ 1000 | O=C(CN([C@]1(C(=O)O)C[C@H]1c1ccccc1)S(=O)(=O)c1ccc(-c2ccc(Cl)cc2)s1)N1CCOCC1 [Example 2-16, (1R,2S)-1-[[5-(4-Chloro-phenyl)-thiophene-2-sulfonyl]-(2-morpholin-4-yl-2-oxo-ethyl)-amino]-2-phenyl-cyclopropanecarboxylic acid]
≥ 10000 | ≥ 1000 | ≥ 1000 | CN([C@]1(C(=O)O)C[C@H]1c1ccccc1)S(=O)(=O)c1ccc(-c2ccc(Cl)cc2)s1 [Example 2-12, (1R,2S)-1-{[5-(4-Chloro-phenyl)-thiophene-2-sulfonyl]-methyl-amino}-2-phenyl-cyclopropanecarboxylic acid]
≥ 10000 | ≥ 1000 | ≥ 1000 | O=C(O)C1(N(CCO)S(=O)(=O)c2ccc(-c3ccc(Cl)cc3)s2)CC1c1ccccc1 (stereo not drawn) [Example 2-04, (1R*,2S*)-1-[[5-(4-Chloro-phenyl)-thiophene-2-sulfonyl]-(2)-hydroxy-ethyl)-amino]-2-phenyl-cyclopropanecarboxylic acid]
≥ 10000 | ≥ 1000 | ≥ 10000 | CN([C@@]1(C(=O)O)C[C@@H]1c1ccccc1)S(=O)(=O)c1ccc(-c2ccc(Cl)cc2)s1 [Example 2-03, (1S,2R)-1-{[5-(4-Chloro-phenyl)-thiophene-2-sulfonyl]-methyl-amino}-2-phenyl-cyclopropanecarboxylic acid]
